Measurements as given in the supplement of paper PMC10307832.

How the values were obtained:
Assay in all cases: relative viability (nuclei count vs DMSO), 5 days (fraction); higher = more cells survive
[1] = compound: CC(O)(CS(=O)(=O)c1ccc(F)cc1)C(=O)Nc1ccc(C#N)c(C(F)(F)F)c1 [Bicalutamide] + CS(=O)(=O)N1CCN(Cc2cc3nc(-c4cccc5[nH]ncc45)nc(N4CCOCC4)c3s2)CC1 [Pictilisib] (partner 1 µM)
Outline: (§1)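 Relative viability is defined as nuclei in treated wells over nuclei in vehicle wells. Duplicate plates were run and medians reported. Lung cancer cell lines in 1536-well plates were dosed by pin tool one day after seeding, with one drug or with a fixed anchor-drug dose plus five library-drug doses (not always all listed) in √10 steps, and nuclei were counted after 5 days.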

[2] = compound: C(C(=O)C(=O)O)Br [Bromopyruvate] + CCNC(=O)c1noc(-c2cc(C(C)C)c(O)cc2O)c1-c1ccc(CN2CCOCC2)cc1 [Luminespib] (partner 0.01 µM)
Outline: as §1

Bromopyruvate + Olaparib = compound: C(C(=O)C(=O)O)Br [Bromopyruvate] + O=C(c1cc(Cc2n[nH]c(=O)c3ccccc23)ccc1F)N1CCN(C(=O)C2CC2)CC1 [Olaparib] (partner 8 µM)
Outline: as §1

Bicalutamide + AZD7762 = compound: CC(O)(CS(=O)(=O)c1ccc(F)cc1)C(=O)Nc1ccc(C#N)c(C(F)(F)F)c1 [Bicalutamide] + NC(=O)Nc1cc(-c2cccc(F)c2)sc1C(=O)N[C@H]1CCCNC1 [AZD7762] (partner 0.2 µM)
Outline: as §1

| Cell Line | relative viability ([1]; first compound 0.08 µM) | relative viability ([1]; first compound 0.253 µM) | relative viability ([1]; first compound 0.8 µM) | relative viability ([1]; first compound 2.53 µM) | relative viability ([2]; first compound 1 µM) | relative viability ([2]; first compound 3.162 µM) | relative viability ([2]; first compound 10 µM) | relative viability ([2]; first compound 31.62 µM) | relative viability ([2]; first compound 100 µM) | relative viability (Bromopyruvate + Olaparib; first compound 1 µM) | relative viability (Bromopyruvate + Olaparib; first compound 3.162 µM) | relative viability (Bromopyruvate + Olaparib; first compound 10 µM) | relative viability (Bromopyruvate + Olaparib; first compound 31.62 µM) | relative viability (Bromopyruvate + Olaparib; first compound 100 µM) | relative viability (Bicalutamide + AZD7762; first compound 0.08 µM) | relative viability (Bicalutamide + AZD7762; first compound 0.253 µM) | relative viability (Bicalutamide + AZD7762; first compound 0.8 µM) | relative viability (Bicalutamide + AZD7762; first compound 2.53 µM) |
| --- | --- | --- | --- | --- | --- | --- | --- | --- | --- | --- | --- | --- | --- | --- | --- | --- | --- | --- |
| NCI-H1975 | 0.291 | 0.331 | 0.329 | 0.233 | 0.227 | 0.286 | 0.084 | 0.255 | 0.253 | 0.858 | 0.79 | 1.11 | 0.755 | 0.605 | 0.769 | 0.783 | 0.722 | 0.667 |
| CAL-12T | 0.394 | 0.415 | 0.454 | 0.345 | 0.375 | 0.421 | 0.606 | 0.285 | 0.357 | 0.654 | 0.661 | 0.697 | 0.725 | 0.65 | 0.729 | 0.655 | 0.703 | 0.68 |
| HCC-44 | 0.702 | 0.534 | 0.727 | 0.479 | 1.09 | 1.12 | 1.54 | 0.968 | 0.948 | 0.939 | 0.932 | 0.969 | 0.938 | 0.972 | 1.02 | 1.05 | 1.02 | 1.01 |
| EKVX | 0.456 | 0.366 | 0.434 | 0.455 | 0.824 | 0.883 | 1.22 | 0.811 | 1.02 | 0.73 | 0.87 | 0.843 | 0.861 | 0.874 | 0.693 | 0.613 | 0.797 | 0.664 |
| NCI-H1651 | 0.618 | 0.429 | 0.686 | 0.471 | 0.853 | 0.848 | 0.929 | 0.811 | 1.01 | 0.188 | 0.182 | 0.187 | 0.207 | 0.167 | 0.513 | 0.396 | 0.549 | 0.436 |
| NCI-H1944 | 0.4 | 0.296 | 0.334 | 0.327 | 0.716 | 0.785 | 0.967 | 0.7 | 0.734 | 0.395 | 0.432 | 0.429 | 0.419 | 0.402 | 0.496 | 0.438 | 0.519 | 0.366 |
| A-427 | 0.676 | 0.812 | 0.867 | 0.628 | 0.763 | 1.04 | 0.918 | 0.971 | 0.817 | 0.664 | 0.758 | 0.782 | 0.693 | 0.774 | 0.807 | 0.677 | 0.855 | 0.583 |
| NCI-H2405 | 0.478 | 0.421 | 0.556 | 0.368 | 0.719 | 0.643 | 0.738 | 0.741 | 0.675 | 0.879 | 0.859 | 0.916 | – | 0.402 | 0.739 | 0.713 | 0.88 | 0.694 |
| NCI-H1355 | 0.413 | 0.316 | 0.441 | 0.485 | 0.721 | 0.77 | 0.649 | 0.735 | 0.698 | 0.738 | 0.762 | 0.681 | 0.764 | 0.776 | 0.828 | 0.701 | 0.923 | 0.72 |
| NCI-H358 | 0.385 | 0.361 | 0.301 | 0.303 | 0.429 | 0.397 | 0.554 | 0.322 | 0.31 | 0.591 | 0.687 | 0.628 | 0.565 | 0.535 | 0.562 | 0.489 | 0.64 | 0.547 |
| RERF-LC-KJ | 0.628 | 0.506 | 0.634 | 0.613 | 1.28 | 1.32 | 1.2 | 1.21 | 1.23 | 0.981 | 0.857 | 0.954 | 0.942 | 0.852 | 0.982 | 0.847 | 1.47 | 0.867 |
| NCI-H23 | 0.476 | 0.446 | 0.633 | 0.378 | 0.216 | 0.182 | 0.238 | 0.203 | 0.201 | 0.318 | 0.316 | 0.321 | 0.399 | 0.196 | 0.315 | 0.236 | 0.27 | 0.2 |
| HOP-62 | 0.971 | 0.806 | 0.998 | 0.614 | 0.887 | 0.97 | 0.84 | 0.934 | 0.9 | 0.373 | 0.432 | 0.798 | 0.525 | 0.157 | 0.567 | 0.494 | 0.848 | 0.432 |
| HARA | 0.462 | 0.413 | 0.566 | 0.316 | 0.707 | 0.939 | 0.486 | 0.75 | 0.802 | 0.836 | 1.45 | – | 0.632 | 0.738 | 0.382 | – | 0.368 | 0.262 |
| PC-14 | 0.894 | 0.652 | 0.707 | 0.659 | 0.191 | 0.184 | 0.169 | 0.157 | 0.203 | 0.297 | 0.368 | 0.161 | 0.32 | 0.205 | 0.314 | 0.329 | 0.443 | 0.353 |
| NCI-H1755 | 0.476 | 0.378 | 0.523 | 0.279 | 0.501 | 0.516 | 0.421 | 0.466 | 0.465 | 0.935 | 0.865 | 0.854 | 0.924 | 0.936 | 0.382 | 0.388 | 0.475 | 0.365 |
| NCI-H441 | 0.594 | – | 0.513 | 0.426 | 0.445 | 0.505 | 0.323 | 0.524 | 0.38 | 0.604 | 0.538 | 0.643 | 0.564 | 0.602 | 1.06 | 1.08 | 1.13 | 1.16 |
| NCI-H322M | 0.469 | 0.53 | 0.573 | 0.55 | 0.821 | 0.977 | 0.891 | 0.879 | 0.747 | 0.715 | 0.82 | 0.743 | 0.737 | 0.687 | 0.581 | 0.521 | 0.579 | 0.572 |
